The text below walks through data of ChEMBL document CHEMBL3352247, “Synthesis and antimycobacterial evaluation of 5-alkylamino-N-phenylpyrazine-2-carboxamides” (Bioorg Med Chem, 2015).

Assay [1] concerns Mycobacterium tuberculosis. Description: Antimycobacterial activity against Mycobacterium tuberculosis H37Rv CNCTC My 331/88 after 10 to 14 days by AlamarBlue assay. The assay is classed as functional. (The colour change of resazurin is a common sign of viable cells or microbes.)
A short description of assay [2]: Antimycobacterial activity against Mycobacterium avium subsp. avium Chester CNCTC My 80/72 after 5 days by AlamarBlue assay. The assay is classed as functional. To be noted: Chester CNCTC My 80/72, 120 h.
In assay [3] the test system is Staphylococcus epidermidis. Description: Antibacterial activity against Staphylococcus epidermidis H 6966/08 clinical isolate after 24 to 48 hrs by broth microdilution method. The assay is classed as functional, organism-based. For orientation: In broth dilution the organism is exposed to a series of concentrations in liquid medium.
Assay [4] relates to Trichosporon asahii. Description: Antifungal activity against Trichosporon asahii 1188 after 24 to 48 hrs by two-fold dilution method. The class given is functional, organism-based.
Assay [5] has as its system Mycobacterium kansasii. Description: Antimycobacterial activity against Mycobacterium kansasii CNCTC My 235/80 after 5 to 7 days by AlamarBlue assay. The class given is functional.
For assay [6], the system named is Aspergillus fumigatus. Description: Antifungal activity against Aspergillus fumigatus 231 after 24 to 48 hrs by two-fold dilution method. The assay is classed as functional, organism-based.
For assay [7], the system named is Candida tropicalis. Description: Antifungal activity against Candida tropicalis 156 after 24 to 48 hrs by two-fold dilution method. The assay is classed as functional, organism-based.
Assay [8] concerns Staphylococcus aureus. Description: Antibacterial activity against methicillin-resistant Staphylococcus aureus H 5996/08 clinical isolate after 24 to 48 hrs by broth microdilution method. The class given is functional, organism-based.
Assay [9] relates to Nakaseomyces glabratus. Description: Antifungal activity against Candida glabrata 20/I after 24 to 48 hrs by two-fold dilution method. The assay is classed as functional, organism-based.
In assay [10] the test system is Enterococcus sp. Description: Antibacterial activity against Enterococcus sp. after 24 to 48 hrs by broth microdilution method. The class given is functional.
Assay [11] relates to Klebsiella pneumoniae. Description: Antibacterial activity against ESBL-positive Klebsiella pneumoniae J 14368/08 clinical isolate after 24 to 48 hrs by broth microdilution method. The class given is functional, organism-based.
Assay [12] deals with Klebsiella pneumoniae. Description: Antibacterial activity against Klebsiella pneumoniae D 11750/08 clinical isolate after 24 to 48 hrs by broth microdilution method. The class given is functional, organism-based.
Assay [13] deals with Escherichia coli. Description: Antibacterial activity against Escherichia coli CCM 4517 after 24 to 48 hrs by broth microdilution method. The assay is classed as functional, organism-based.
The test system of assay [14] is Pichia kudriavzevii. Description: Antifungal activity against Candida krusei E28 after 24 to 48 hrs by two-fold dilution method. The assay is classed as functional, organism-based.
The test system of assay [15] is Lichtheimia corymbifera. Description: Antifungal activity against Absidia corymbifera 272 after 24 to 48 hrs by two-fold dilution method. The class given is functional, organism-based.
The subject of assay [16] is Pseudomonas aeruginosa. Description: Antibacterial activity against Pseudomonas aeruginosa CCM 1961 after 24 to 48 hrs by broth microdilution method. The assay is classed as functional, organism-based.
Assay [17] has as its system Candida albicans. Description: Antifungal activity against Candida albicans ATCC 44859 after 24 to 48 hrs by two-fold dilution method. The class given is functional, organism-based.
The test system of assay [18] is Trichophyton mentagrophytes. Description: Antifungal activity against Trichophyton mentagrophytes 445 after 72 to 120 hrs by two-fold dilution method. The class given is functional, organism-based.
Assay [19] concerns Staphylococcus aureus. Description: Antibacterial activity against Staphylococcus aureus CCM 4516/08 after 24 to 48 hrs by broth microdilution method. The assay is classed as functional, organism-based.
Assay [20] concerns Enterococcus sp. Description: Antibacterial activity against Enterococcus sp. J 14365/08 clinical isolate after 24 to 48 hrs by broth microdilution method. The class given is functional, organism-based.
For assay [21], the system named is Mycobacterium kansasii. Description: Antimycobacterial activity against Mycobacterium kansasii CNCTC My 235/80 in Middlebrook 7H9 broth after 5 days by AlamarBlue assay. The class given is functional. The conditions noted are these: CNCTC My 235/80, 120 h.
Assay [22] in a line: Antimycobacterial activity against Mycobacterium avium subsp. avium Chester CNCTC My 80/72 in Middlebrook 7H9 broth after 5 days by AlamarBlue assay. The class given is functional. The conditions noted are these: Chester CNCTC My 80/72, 120 h.
Assay [23] deals with Mycobacterium tuberculosis. Description: Antimycobacterial activity against Mycobacterium tuberculosis H37Rv CNCTC My 331/88 in Middlebrook 7H9 broth after 5 days by AlamarBlue assay. The assay is classed as functional. To be noted: H37Rv CNCTC My 331/88, 120 h.

Converted amounts (≈) assume the structure as drawn. The source made the active and inactive calls. The rule behind the calls is not given here.

On to `O=C(Nc1ccccc1Cl)c1cnc(Cl)cn1`, for which the MIC – broadly, the lowest concentration found to suppress growth – in assay [1] is 2 µM; in assay [2] it was > 100 µg/mL.
On to `CCCNc1cnc(C(=O)Nc2ccccc2)cn1`, for which the outcome in [3], in assay [4], in assay [6], in [7], in assay [8] and in [9] was inactive. Moreover, the result in [11], in [12], in assay [13], in [14], in assay [15] and in assay [16] was inactive. Further, the outcome in [17], in [18], in [19] and in assay [20] was inactive. Besides, the minimal inhibitory concentration (MIC) is 48.8 µM in [5], 12.2 µM in [1] and > 100 µg/mL in assay [2]. In [10], the result was Active.
Consider `NC(=O)c1cnccn1` [PYRAZINAMIDE], for which the MIC was > 100 µg/mL in assay [5], 50.8 µM in assay [1] and > 100 µg/mL in assay [2].
In the case of `CCCCCNc1cnc(C(=O)Nc2ccccc2Cl)cn1`, the outcome in [3], in [4], in assay [6], in assay [7], in [8] and in assay [9] was inactive. The result in assay [11], in assay [12], in assay [13], in assay [14], in [15] and in assay [16] was inactive. The result in [17], in assay [18], in assay [19] and in [20] was inactive. In addition, the MIC in assay [5], in assay [1] and in assay [2] was > 100 µg/mL throughout. Also, the outcome in assay [10] was Active.
As to `CCCCCCCCNc1cnc(C(=O)Nc2ccccc2Cl)cn1`, the outcome in assay [3], in assay [4], in assay [6], in assay [7], in assay [8] and in [9] was inactive. Further, the result in assay [11], in [12], in [13], in assay [14], in assay [15] and in assay [16] was inactive. In addition, the outcome in [17], in assay [18], in assay [19] and in assay [20] was inactive. Also, the minimum inhibitory concentration (MIC) in [5], in [1] and in assay [2] was > 25 µg/mL in each case. Besides, the result in [10] was Active.
Consider `CCCCCCCNc1cnc(C(=O)Nc2ccccc2Cl)cn1`, for which the outcome in [3], in assay [4], in assay [6], in assay [7], in assay [8] and in assay [9] was inactive. For the same compound, the result in assay [11], in assay [12], in [13], in assay [14], in [15] and in assay [16] was inactive. Moreover, the outcome in assay [17], in assay [18], in assay [19] and in assay [20] was inactive. In addition, the MIC in assay [5] is > 25 µg/mL; in assay [1], 36 µM; in assay [2], > 25 µg/mL. In addition, the result in assay [10] was Active.
Consider `CCCCCCNc1cnc(C(=O)Nc2ccccc2Cl)cn1`, for which the result in assay [3], in assay [4], in assay [6], in assay [7], in [8] and in assay [9] was inactive. Besides, the outcome in [11], in [12], in assay [13], in [14], in [15] and in assay [16] was inactive. For the same compound, the result in assay [17], in assay [18], in [19] and in [20] was inactive. In addition, the MIC in assay [5], in assay [1] and in [2] was > 100 µg/mL each time. For the same compound, the result in assay [10] was Active.
As to `CCCCNc1cnc(C(=O)Nc2ccccc2Cl)cn1`, the result in assay [3], in [4], in assay [6], in assay [7], in [8] and in [9] was inactive. The result in [11], in assay [12], in assay [13], in assay [14], in [15] and in [16] was inactive. For the same compound, the outcome in [17], in [18], in assay [19] and in [20] was inactive. The minimal inhibitory concentration (MIC) in [5] is > 100 µg/mL; in [1], > 100 µg/mL; in [10], 62.5 µM (≈ 19 µg/mL); in assay [2], > 100 µg/mL.
On to `CCCCCCNc1cnc(C(=O)Nc2ccccc2)cn1`, for which the result in assay [3], in assay [4], in [6], in [7], in [8] and in assay [9] was inactive. Moreover, the result in assay [11], in assay [12], in [13], in [14], in assay [15] and in assay [16] was inactive. Besides, the outcome in assay [17], in [18], in [19] and in assay [20] was inactive. The values for the minimal inhibitory concentration (MIC) in [5], in assay [1] and in assay [2] were 2.6 µM, 2.6 µM and > 100 µg/mL, respectively. Moreover, in [10], the result was Active.
Turning to `NNC(=O)c1ccncc1` [ISONIAZID], the MIC was determined as 11.4 µM in assay [5], 1.5 µM in [1] and 12.5 µg/mL (≈ 91.1 µM) in assay [2].
For `Nc1cnc(C(=O)Nc2ccccc2)cn1`, the outcome in assay [3], in assay [4], in assay [6], in assay [7], in assay [8] and in assay [9] was inactive. Moreover, the outcome in assay [11], in [12], in assay [13], in assay [14], in assay [15] and in [16] was inactive. Besides, the result in assay [17], in [18], in [19] and in [20] was inactive. Besides, the minimum inhibitory concentration (MIC) in assay [21], in assay [22] and in [23] was > 100 µg/mL each time.
